{
  "source": "paper PMC11062922",
  "about": "(Nature Chemical Biology, 2023)",
  "key": {"PRKCD": {"molecular_target": "T1, PRKCD (Homo sapiens, UniProt Q05655)", "T1 construct": "endogenous in cells", "T1 sequence (Q05655 whole entry)": "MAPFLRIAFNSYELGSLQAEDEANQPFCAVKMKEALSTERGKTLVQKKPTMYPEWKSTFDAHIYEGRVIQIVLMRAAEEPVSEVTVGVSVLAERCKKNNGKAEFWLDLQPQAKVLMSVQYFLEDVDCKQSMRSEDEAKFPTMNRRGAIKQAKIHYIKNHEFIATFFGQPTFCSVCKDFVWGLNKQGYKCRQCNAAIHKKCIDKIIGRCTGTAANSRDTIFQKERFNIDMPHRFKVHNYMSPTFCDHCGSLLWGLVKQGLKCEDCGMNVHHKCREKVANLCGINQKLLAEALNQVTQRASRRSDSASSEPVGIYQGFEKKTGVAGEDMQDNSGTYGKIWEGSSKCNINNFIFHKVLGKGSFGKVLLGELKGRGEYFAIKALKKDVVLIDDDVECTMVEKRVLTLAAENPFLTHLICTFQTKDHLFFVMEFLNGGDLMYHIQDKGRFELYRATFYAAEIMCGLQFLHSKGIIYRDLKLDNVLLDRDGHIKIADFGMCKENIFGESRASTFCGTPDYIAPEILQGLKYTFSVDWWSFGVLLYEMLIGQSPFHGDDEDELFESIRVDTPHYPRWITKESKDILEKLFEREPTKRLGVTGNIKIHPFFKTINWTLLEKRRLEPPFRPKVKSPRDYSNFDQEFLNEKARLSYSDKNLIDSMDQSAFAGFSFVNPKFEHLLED", "assay": "Kinobeads full dose-response competition binding: PRKCD", "details": "Gene Name PRKCD"}, "PRKCQ": {"molecular_target": "T2, PRKCQ (Homo sapiens, UniProt Q04759)", "T2 construct": "to maximize the representation of endogenous proteins; endogenous in cells", "T2 sequence (Q04759 whole entry)": "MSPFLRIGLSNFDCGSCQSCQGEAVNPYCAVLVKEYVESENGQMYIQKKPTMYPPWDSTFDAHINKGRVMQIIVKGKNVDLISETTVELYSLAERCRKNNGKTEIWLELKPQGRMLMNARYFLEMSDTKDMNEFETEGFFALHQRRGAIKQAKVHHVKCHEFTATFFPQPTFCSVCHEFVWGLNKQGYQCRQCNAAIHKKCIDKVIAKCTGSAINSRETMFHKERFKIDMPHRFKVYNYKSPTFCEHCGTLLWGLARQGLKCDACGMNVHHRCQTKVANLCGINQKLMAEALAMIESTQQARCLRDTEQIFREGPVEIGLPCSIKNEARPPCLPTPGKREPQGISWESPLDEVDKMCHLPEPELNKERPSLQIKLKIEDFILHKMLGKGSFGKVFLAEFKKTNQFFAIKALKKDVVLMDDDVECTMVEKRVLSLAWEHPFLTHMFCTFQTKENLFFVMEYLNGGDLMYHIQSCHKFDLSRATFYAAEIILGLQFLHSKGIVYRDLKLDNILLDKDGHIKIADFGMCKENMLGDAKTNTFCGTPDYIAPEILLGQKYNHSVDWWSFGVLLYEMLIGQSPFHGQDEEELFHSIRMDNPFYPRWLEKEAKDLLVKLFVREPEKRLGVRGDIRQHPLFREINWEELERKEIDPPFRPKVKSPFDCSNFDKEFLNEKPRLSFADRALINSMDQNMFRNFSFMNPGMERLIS", "assay": "Kinobeads full dose-response competition binding: PRKCQ", "details": "Gene Name PRKCQ"}, "EPHB2": {"molecular_target": "T3, EPHB2 (Homo sapiens, UniProt P29323)", "T3 construct": "endogenous in cells", "T3 sequence (P29323 19-1055)": "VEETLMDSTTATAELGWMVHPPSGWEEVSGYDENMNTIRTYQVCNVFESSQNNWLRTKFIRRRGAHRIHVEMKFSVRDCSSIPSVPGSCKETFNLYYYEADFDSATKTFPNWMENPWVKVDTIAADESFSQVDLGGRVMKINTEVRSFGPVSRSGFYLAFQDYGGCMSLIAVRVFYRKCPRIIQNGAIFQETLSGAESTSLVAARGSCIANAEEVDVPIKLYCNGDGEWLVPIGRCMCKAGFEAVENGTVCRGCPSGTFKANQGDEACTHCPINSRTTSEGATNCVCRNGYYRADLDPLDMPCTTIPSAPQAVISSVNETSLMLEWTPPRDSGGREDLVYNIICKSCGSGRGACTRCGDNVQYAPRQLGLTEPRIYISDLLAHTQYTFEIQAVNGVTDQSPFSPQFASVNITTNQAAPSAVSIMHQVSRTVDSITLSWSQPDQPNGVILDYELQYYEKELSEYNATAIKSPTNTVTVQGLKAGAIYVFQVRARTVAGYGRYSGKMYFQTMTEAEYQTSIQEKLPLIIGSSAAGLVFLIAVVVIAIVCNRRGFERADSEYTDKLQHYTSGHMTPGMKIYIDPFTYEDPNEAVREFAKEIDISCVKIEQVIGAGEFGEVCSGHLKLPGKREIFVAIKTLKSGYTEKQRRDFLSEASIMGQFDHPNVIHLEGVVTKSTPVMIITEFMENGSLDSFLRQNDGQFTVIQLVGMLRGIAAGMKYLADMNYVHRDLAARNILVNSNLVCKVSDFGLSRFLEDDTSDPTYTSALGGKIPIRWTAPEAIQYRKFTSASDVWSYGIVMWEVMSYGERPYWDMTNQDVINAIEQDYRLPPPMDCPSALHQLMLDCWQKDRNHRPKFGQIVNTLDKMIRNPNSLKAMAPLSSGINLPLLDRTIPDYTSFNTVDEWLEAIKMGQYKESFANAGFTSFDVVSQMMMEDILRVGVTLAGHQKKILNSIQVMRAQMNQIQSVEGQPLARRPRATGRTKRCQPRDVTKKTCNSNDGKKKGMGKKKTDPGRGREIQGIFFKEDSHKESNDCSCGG", "assay": "Kinobeads two-dose competition binding: EPHB2", "details": "read-out: Lestaurtinib Drugmatrix value, Gene Name EPHB2"}, "NTRK1": {"molecular_target": "T4, NTRK1 (Homo sapiens, UniProt P04629)", "T4 construct": "endogenous in cells", "T4 sequence (P04629 33-796)": "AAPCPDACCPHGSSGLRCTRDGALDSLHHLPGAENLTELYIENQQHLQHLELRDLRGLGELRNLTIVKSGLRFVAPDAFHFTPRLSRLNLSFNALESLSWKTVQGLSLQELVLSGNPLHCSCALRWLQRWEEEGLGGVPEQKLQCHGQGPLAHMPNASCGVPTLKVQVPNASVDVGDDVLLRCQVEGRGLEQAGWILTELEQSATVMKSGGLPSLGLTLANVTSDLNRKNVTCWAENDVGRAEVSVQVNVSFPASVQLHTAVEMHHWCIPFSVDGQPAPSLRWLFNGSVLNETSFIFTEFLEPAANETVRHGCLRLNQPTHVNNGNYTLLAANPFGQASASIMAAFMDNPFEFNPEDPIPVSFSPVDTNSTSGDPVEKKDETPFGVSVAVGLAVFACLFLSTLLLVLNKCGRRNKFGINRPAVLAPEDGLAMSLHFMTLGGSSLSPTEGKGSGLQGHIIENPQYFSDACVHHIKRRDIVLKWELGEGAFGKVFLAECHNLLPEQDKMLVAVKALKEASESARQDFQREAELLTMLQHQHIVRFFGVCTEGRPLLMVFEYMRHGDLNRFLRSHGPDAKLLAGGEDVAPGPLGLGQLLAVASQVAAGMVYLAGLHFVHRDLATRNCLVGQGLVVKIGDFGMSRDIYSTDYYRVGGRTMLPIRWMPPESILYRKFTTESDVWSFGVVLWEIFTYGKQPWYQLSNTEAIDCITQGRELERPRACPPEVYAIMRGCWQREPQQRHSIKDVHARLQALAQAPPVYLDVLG", "assay": "Kinobeads competition binding, Lestaurtinib control replicates: NTRK1", "details": "read-out: Lestaurtinib Drugmatrix value, NTRK1; Gene Name NTRK1; one column per experiment number and replicate (R1-R3)"}, "TGFBR2": {"molecular_target": "T5, TGFBR2 (Homo sapiens, UniProt P37173)", "T5 construct": "endogenous in cells", "T5 sequence (P37173 23-567)": "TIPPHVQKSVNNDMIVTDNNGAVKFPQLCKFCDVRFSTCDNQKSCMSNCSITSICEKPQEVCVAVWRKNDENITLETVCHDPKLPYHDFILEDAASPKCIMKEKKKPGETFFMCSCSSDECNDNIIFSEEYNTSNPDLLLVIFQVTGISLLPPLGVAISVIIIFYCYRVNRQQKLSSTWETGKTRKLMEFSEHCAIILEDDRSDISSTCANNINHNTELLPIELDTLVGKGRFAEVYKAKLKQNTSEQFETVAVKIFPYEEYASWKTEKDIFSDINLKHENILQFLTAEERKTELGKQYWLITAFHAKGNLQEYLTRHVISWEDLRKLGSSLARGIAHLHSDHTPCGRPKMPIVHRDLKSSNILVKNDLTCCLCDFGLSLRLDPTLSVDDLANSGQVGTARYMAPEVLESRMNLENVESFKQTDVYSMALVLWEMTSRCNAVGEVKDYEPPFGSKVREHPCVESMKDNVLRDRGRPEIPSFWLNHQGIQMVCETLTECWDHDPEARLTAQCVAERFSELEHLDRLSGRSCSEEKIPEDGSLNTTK", "assay": "Kinobeads full dose-response competition binding: TGFBR2", "details": "Gene Name TGFBR2"}, "[1]": {"details": "EC50 with Correction, doses in nM, read-out: apparent Kd"}, "[2]": {"details": "eight-dose curve fit, doses in nM"}},
  "data": [
    {"smiles": "CCn1c(-c2nonc2N)nc2c(C#CC(C)(C)O)nc(OCCN)cc21", "note": "[GSK902056A]", "values": [
      {"measurement": "Relative Intensity 0.3nM", "setting": "PRKCD; 0.3nM compound, DMSO = 1", "value": 0.9769},
      {"measurement": "Relative Intensity 1nM", "setting": "PRKCD; 1nM compound, DMSO = 1", "value": 1.01},
      {"measurement": "Relative Intensity 3nM", "setting": "PRKCD; 3nM compound, DMSO = 1", "value": 1.114},
      {"measurement": "Relative Intensity 10nM", "setting": "PRKCD; 10nM compound, DMSO = 1", "value": 1.044},
      {"measurement": "Relative Intensity 30nM", "setting": "PRKCD; 30nM compound, DMSO = 1", "value": 0.8254},
      {"measurement": "Relative Intensity 100nM", "setting": "PRKCD; 100nM compound, DMSO = 1", "value": 0.6161},
      {"measurement": "Relative Intensity 300nM", "setting": "PRKCD; 300nM compound, DMSO = 1", "value": 0.3888},
      {"measurement": "Relative Intensity 1000nM", "setting": "PRKCD; 1000nM compound, DMSO = 1", "value": 0.1734},
      {"measurement": "Kd", "setting": "PRKCD; [1]", "value": 124, "unit": "nM"},
      {"measurement": "EC50", "setting": "PRKCD; [2]", "value": 124, "unit": "nM"},
      {"measurement": "Relative Intensity 0.3nM", "setting": "PRKCQ; 0.3nM compound, DMSO = 1", "value": 0.9348},
      {"measurement": "Relative Intensity 1nM", "setting": "PRKCQ; 1nM compound, DMSO = 1", "value": 1.037},
      {"measurement": "Relative Intensity 3nM", "setting": "PRKCQ; 3nM compound, DMSO = 1", "value": 0.9215},
      {"measurement": "Relative Intensity 10nM", "setting": "PRKCQ; 10nM compound, DMSO = 1", "value": 0.8429},
      {"measurement": "Relative Intensity 30nM", "setting": "PRKCQ; 30nM compound, DMSO = 1", "value": 0.5346},
      {"measurement": "Relative Intensity 100nM", "setting": "PRKCQ; 100nM compound, DMSO = 1", "value": 0.4204},
      {"measurement": "Relative Intensity 300nM", "setting": "PRKCQ; 300nM compound, DMSO = 1", "value": 0},
      {"measurement": "Relative Intensity 1000nM", "setting": "PRKCQ; 1000nM compound, DMSO = 1", "value": 0},
      {"measurement": "Kd", "setting": "PRKCQ; [1]", "value": 58.7, "unit": "nM"},
      {"measurement": "EC50", "setting": "PRKCQ; [2]", "value": 58.7, "unit": "nM"}
    ]},
    {"smiles": "C[C@]12O[C@H](C[C@]1(O)CO)n1c3ccccc3c3c4c(c5c6ccccc6n2c5c31)CNC4=O", "note": "[Lestaurtinib]", "values": [
      {"measurement": "potency estimated from few doses", "setting": "EPHB2", "value": 257, "unit": "nM"},
      {"measurement": "potency estimated from few doses", "setting": "NTRK1", "value": 772, "unit": "nM"}
    ]},
    {"smiles": "NCc1ccc(-c2nc(-c3ccncc3)c(-c3ccc(Cl)c(O)c3)[nH]2)cc1", "note": "[SB-476429-A]", "values": [
      {"measurement": "Relative Intensity 0.3nM", "setting": "TGFBR2; 0.3nM compound, DMSO = 1", "value": 0.9776},
      {"measurement": "Relative Intensity 1nM", "setting": "TGFBR2; 1nM compound, DMSO = 1", "value": 1.003},
      {"measurement": "Relative Intensity 3nM", "setting": "TGFBR2; 3nM compound, DMSO = 1", "value": 1.034},
      {"measurement": "Relative Intensity 10nM", "setting": "TGFBR2; 10nM compound, DMSO = 1", "value": 1.093},
      {"measurement": "Relative Intensity 30nM", "setting": "TGFBR2; 30nM compound, DMSO = 1", "value": 0.9102},
      {"measurement": "Relative Intensity 100nM", "setting": "TGFBR2; 100nM compound, DMSO = 1", "value": 0.8621},
      {"measurement": "Relative Intensity 300nM", "setting": "TGFBR2; 300nM compound, DMSO = 1", "value": 0.7152},
      {"measurement": "Relative Intensity 1000nM", "setting": "TGFBR2; 1000nM compound, DMSO = 1", "value": 0.41},
      {"measurement": "Kd", "setting": "TGFBR2; [1]", "value": 767, "unit": "nM"},
      {"measurement": "EC50", "setting": "TGFBR2; [2]", "value": 871, "unit": "nM"}
    ]}
  ]
}
